# Reference: publication PMC7226045, “Ensartinib (X-396) Effectively Modulates Pharmacokinetic Resistance Mediated by ABCB1 and ABCG2 Drug Efflux Transporters and CYP3A4 Biotransformation Enzyme” (Cancers, 2020)
# Legend:
# ABCB1 = test system: T1, ABCB1; experiment: ABCB1 ATPase assay (ABCB1-Sf9 membrane fraction); type: biochemical; settings: ABCB1-Sf9 membranes
# T1 construct: purchased Solvo Biotechnology SB MDR1/P-gp; host or cells: Sf9 cell membranes
# Method: The ABCB1 ATPase assay was performed with minor modifications as described previously. The ATPase activitity was determined using ABCB1 […] ATPase Kit according to the manufacturer’s instructions. Sf9 cell membranes (4 µg protein per well) were mixed with various concentrations of ensartinib. The reaction mixture was then incubated for 10 min at 37 °C in the presence or absence of 1.2 mM sodium orthovanadate. The ATPase reactions were started by the addition of 10 mM ATP magnesium salt and stopped 10 min later. After 30 min incubation, absorbance was measured at 590 nm using the microplate reader (Infinite M200, Tecan, Salzburg, Austria). Phosphate standards were present in each plate; verapamil was used as positive control for ABCB1 stimulation.
# [1] = MTT proliferation / drug combination assay, MDCKII-ABCB1; settings: dog, MDCKII-ABCB1 cells
# Method: (§1) MTT proliferation assay was performed as described previously. Cells were seeded on a 96-well culture plate at densities (in units of cells/well) of 1.3 × 10^4 for MDCKII-par, MDCKII-ABCB1, MDCKII-ABCG2, and MDCKII-ABCC1; 1.2 × 10^4 for A431-par, A431-ABCB1, A431-ABCG2 and A431-ABCC1; 1.2 × 10^4 for NCI-H1299; 2.0 × 10^4 for Caco-2; 5.0 × 10^4 for LS174T; and 6.0 × 10^4 for HepG2-CYP3A4 and HepG2-EV. After seeding, the cells were cultured for 24 h, then the media was removed and the cells were treated with serial dilutions of a drug or drug combination for 48 h. Vehicles containing media and 40% DMSO in media served as 100% and 0% viability controls, respectively. Upon completion of the 48 h period, the cells were washed once with 1× PBS, the media was replaced with an MTT solution in Opti-MEM (1 mg/mL), and the cells were incubated under standard conditions for 60 min. MTT solution was carefully removed and the resulting formazan crystals were immediately solubilized in DMSO. The cells were then shaken gently for 10 min, after which absorbance of their lysate was measured at 570 nm and 690 nm using a microplate reader (Infinite M200, Tecan, Salzburg, Austria); background values obtained at 690 nm were subtracted from the measurements obtained at 570 nm. This method was used to assess the effect of ABC transporters on sensitivity to ensartinib, in drug combination assays, and to identify drug concentrations appropriate for use in induction studies.
# (§2) Experiments focusing on the modulation of ABC transporter-mediated resistance were performed as described previously. The parent MDCKII and HL60 cells and their ABCB1-, ABCG2-, and ABCC1-overexpressing counterparts were seeded at the densities specified above onto 96-well culture plates and cultured for 24 h. The medium was subsequently replaced with serial dilutions of ensartinib alone or with various concentrations of a model MDR-susceptible cytostatic agent (daunorubicin or mitoxantrone) with or without 10 µM ensartinib. After 48 h incubation, the cells’ viability was determined as described above. In addition to performing IC50-shift analyses, the viability measurements were converted to FA (fraction of cells affected) values and the effects of drug combinations were quantified using the Chou-Talalay combination index (CI) method as implemented in CompuSyn 3.0.1 (ComboSyn Inc., Paramus, NJ, USA). The effects of concomitantly administered drugs were classified as synergistic (CI < 0.9), additive (0.9 < CI < 1.1), or antagonistic (CI > 1.1) based on the computed CI values.
# MDCKII-ABCB1 cells = experiment: as above; settings: MDCKII-ABCB1
# Method: as §1, §2
# CYP3A4 = CYP3A4 (Homo sapiens, UniProt P08684); experiment: Vivid CYP screening kit, recombinant CYP3A4; type: biochemical; set-up: purchased Thermo Fisher Scientific; host or cells: insect microsomal fractions; settings: recombinant enzyme, 15 min incubation, absolute IC50; read-out: CYP3A4 inhibition IC50
# Chain of CYP3A4 (P08684 2-503 limits assumed): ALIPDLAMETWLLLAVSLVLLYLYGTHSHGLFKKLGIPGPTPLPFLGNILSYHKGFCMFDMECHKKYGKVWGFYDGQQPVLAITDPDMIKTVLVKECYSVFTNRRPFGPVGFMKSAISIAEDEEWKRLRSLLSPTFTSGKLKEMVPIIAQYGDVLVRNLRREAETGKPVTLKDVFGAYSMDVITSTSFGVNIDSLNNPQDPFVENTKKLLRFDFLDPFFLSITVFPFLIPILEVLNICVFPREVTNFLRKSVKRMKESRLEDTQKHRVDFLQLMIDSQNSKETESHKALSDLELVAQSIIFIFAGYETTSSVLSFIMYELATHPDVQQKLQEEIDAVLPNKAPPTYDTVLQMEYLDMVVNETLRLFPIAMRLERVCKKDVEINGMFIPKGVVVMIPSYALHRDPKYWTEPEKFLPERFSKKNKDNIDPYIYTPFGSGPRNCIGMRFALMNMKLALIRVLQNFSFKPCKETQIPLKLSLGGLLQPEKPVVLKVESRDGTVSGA
# Method: CYP inhibitory assay was performed as described previously. Experiments were performed with commercial Vivid CYP screening kits containing insect microsomal fractions enriched with a specific human CYP isoform, human CYP reductase, and in some cases, human cytochrome b5. The potential inhibitory activity of ensartinib toward CYP1A2, CYP2B6, CYP2C8, CYP2C9, CYP2C19, CYP2D6, CYP3A4, and CYP3A5 (i.e., all CYP isoforms that drug regulatory authorities recommend for testing of inhibition by new molecular entities) was then examined. Experiments were performed using a kinetic mode in black 96-well plates according to the manufacturer´s instructions. Briefly, 5-point serial dilutions of ensartinib or the model inhibitor recommended by the manufacturer in buffer were transferred into the wells, then a master mix consisting of a CYP isoenzyme with an NADPH regeneration system in buffer was added. After a 10 min pre-incubation, the reaction was initiated by adding a mixture of NADP^+ and the appropriate Vivid substrate, after which fluorescence was measured at 1 min intervals for 60 min using an Infinite M200 Pro microplate reader (Tecan, Männedorf, Switzerland). The enzyme concentration and incubation interval used for data evaluation (15 min) placed the systems within the linear regions of the appropriate reaction velocity curves. […]
smiles,measurement,setting,value
"C[C@@H]1CN(C(=O)c2ccc(NC(=O)c3cc(O[C@H](C)c4c(Cl)ccc(F)c4Cl)c(N)nn3)cc2)C[C@H](C)N1 [ensartinib, Ensartinib]",effect on baseline vanadate-sensitive ATPase activity of ABCB1,ABCB1; activation experiment,significantly increased
same,effect on verapamil-stimulated ATPase activity of ABCB1,ABCB1; inhibition experiment,significantly decreased
same,IC50 at 48 h,[1],23.9 µM
same,combination effect (Chou-Talalay combination index),MDCKII-ABCB1 cells; 10 µM ensartinib with daunorubicin,synergistic (synergistic (CI < 0.9))
same,RR (reversal ratio),"MDCKII-ABCB1 cells; daunorubicin, IC50 single drug / IC50 combined with 10 µM ensartinib",11.2
same,IC50,CYP3A4,1.12 µM
